Data: the NIST ThermoML archive (doi:10.1016/j.jct.2008.04.006)
± gives the expanded uncertainty stated by the source.

Columns and labels:
[1] = 100 kPa, Liquid
[2] = refractive index (Na D-line) (dimensionless); conditions: 298.15 K; 101.33 kPa; Liquid; Standard Abbe refractometry
[3] = xn = mol fraction of the nth substance listed; conditions: 100 kPa, Liquid
[4] = refractive index (Na D-line) (dimensionless); xn = mol fraction of the nth substance listed; conditions: 298.15 K, 100 kPa, Liquid, Standard Abbe refractometry

COS(=O)(=O)[O-].Cn1cc[n+](C)c1 [1,3-dimethylimidazolium methylsulfate]
[1]
Conditions | mass density [kg/m3] | viscosity [mPa·s]
298.15 K | 1329.12 ± 3.6 | 77.7 ± 9.7
313.15 K | 1318.56 ± 3.5 | 41.68 ± 2.9
328.15 K | 1308.13 ± 3.5 | 25.21 ± 1.8

Conditions | refractive index
[2] | 1.48296 ± 0.0012

COS(=O)(=O)[O-].Cn1cc[n+](C)c1 [1,3-dimethylimidazolium methylsulfate] + CCO
[3]
Conditions | mass density, 298.15 K [kg/m3] | mass density, 313.15 K [kg/m3] | mass density, 328.15 K [kg/m3] | viscosity, 298.15 K [mPa·s] | viscosity, 313.15 K [mPa·s] | viscosity, 328.15 K [mPa·s]
x2 = 0 | 1329.12 ± 3.6 | 1318.56 ± 3.5 | 1308.13 ± 3.5 | 77.7 ± 5.1 | 41.68 ± 1.7 | 25.21 ± 1.1
x2 = 0.0669 | 1316.47 ± 3.1 | 1305.89 ± 3.1 | 1295.53 ± 3 | 62.1 ± 2.4 | 34.42 ± 1.4 | 21.43 ± 0.94
x2 = 0.1228 | 1305.19 ± 2.8 | 1294.59 ± 2.7 | 1284.2 ± 2.7 | 51.6 ± 1.3 | 29.38 ± 1.2 | 18.72 ± 0.83
x2 = 0.2212 | 1282.46 ± 2.2 | 1271.77 ± 2.1 | 1261.38 ± 2.1 | 36.97 ± 1.4 | 22.8 ± 0.94 | 15.07 ± 0.7
x2 = 0.2944 | 1263.18 ± 1.8 | 1252.46 ± 1.8 | 1241.97 ± 1.7 | 29.56 ± 1.1 | 17.97 ± 0.77 | 12.28 ± 0.61
x2 = 0.3984 | 1231.22 ± 1.3 | 1220.4 ± 1.3 | 1209.57 ± 1.3 | 20.26 ± 0.82 | 12.87 ± 0.62 | 9.141 ± 0.53
x2 = 0.5 | 1192.8 ± 0.96 | 1181.88 ± 0.94 | 1171.12 ± 0.92 | 12.83 ± 0.61 | 8.823 ± 0.52 | 6.461 ± 0.47
x2 = 0.5926 | 1150.85 ± 0.69 | 1139.74 ± 0.67 | 1128.74 ± 0.66 | 8.784 ± 0.51 | 6.258 ± 0.47 | 4.727 ± 0.44
x2 = 0.6921 | 1094.3 ± 0.45 | 1082.98 ± 0.44 | 1071.75 ± 0.43 | 5.706 ± 0.46 | 4.309 ± 0.44 | 3.246 ± 0.42
x2 = 0.797 | 1018.1 ± 0.26 | 1006.41 ± 0.25 | 994.72 ± 0.26 | 3.513 ± 0.42 | 2.649 ± 0.41 | 2.077 ± 0.41
x2 = 0.8957 | 923.16 ± 0.2 | 910.98 ± 0.21 | 898.7 ± 0.22 | 2.096 ± 0.41 | 1.603 ± 0.41 | 1.265 ± 0.4
x2 = 0.945 | 864.26 ± 0.2 | 851.76 ± 0.21 | 839.06 ± 0.22 | 1.602 ± 0.41 | 1.225 ± 0.4 | 0.961 ± 0.4

[4]
Conditions | refractive index
x2 = 0 | 1.48296 ± 0.0012
x2 = 0.0669 | 1.48028 ± 0.0011
x2 = 0.1228 | 1.47773 ± 0.0011
x2 = 0.2212 | 1.47336 ± 0.001
x2 = 0.2944 | 1.46936 ± 0.00099
x2 = 0.3984 | 1.46252 ± 0.00092
x2 = 0.5 | 1.45421 ± 0.00085
x2 = 0.5926 | 1.44554 ± 0.0008
x2 = 0.6921 | 1.43248 ± 0.00076
x2 = 0.797 | 1.41494 ± 0.00072
x2 = 0.8957 | 1.39329 ± 0.00069
x2 = 0.945 | 1.37874 ± 0.00068

COS(=O)(=O)[O-].Cn1cc[n+](C)c1 [1,3-dimethylimidazolium methylsulfate] + O
[3]
Conditions | mass density, 298.15 K [kg/m3] | mass density, 313.15 K [kg/m3] | mass density, 328.15 K [kg/m3] | viscosity, 298.15 K [mPa·s] | viscosity, 313.15 K [mPa·s] | viscosity, 328.15 K [mPa·s]
x2 = 0 | 1329.12 ± 3.6 | 1318.56 ± 3.5 | 1308.13 ± 3.5 | 77.7 ± 9.7 | 41.68 ± 2.9 | 25.21 ± 1.8
x2 = 0.0497 | 1326.99 ± 3.3 | 1316.44 ± 3.2 | 1306.09 ± 3.2 | 68.1 ± 6.1 | 37.51 ± 2.6 | 23.95 ± 1.7
x2 = 0.1475 | 1322.81 ± 2.7 | 1312.31 ± 2.6 | 1301.96 ± 2.6 | 53.6 ± 1.6 | 30.44 ± 2.1 | 19.85 ± 1.4
x2 = 0.2128 | 1319.54 ± 2.3 | 1309.03 ± 2.3 | 1298.64 ± 2.2 | 44.93 ± 3.1 | 25.86 ± 1.8 | 17.11 ± 1.2
x2 = 0.3086 | 1313.75 ± 1.9 | 1303.27 ± 1.8 | 1292.81 ± 1.8 | 35.23 ± 2.4 | 20.76 ± 1.5 | 13.79 ± 1
x2 = 0.3869 | 1307.71 ± 1.5 | 1297.25 ± 1.5 | 1286.89 ± 1.5 | 27.57 ± 1.9 | 16.93 ± 1.2 | 10.5 ± 0.83
x2 = 0.4947 | 1296.97 ± 1.1 | 1286.56 ± 1.1 | 1276.22 ± 1.1 | 19.55 ± 1.4 | 12.41 ± 0.93 | 8.521 ± 0.73
x2 = 0.5959 | 1282.77 ± 0.82 | 1272.39 ± 0.8 | 1262.04 ± 0.78 | 13.88 ± 1 | 9.041 ± 0.75 | 6.336 ± 0.62
x2 = 0.6947 | 1262.17 ± 0.58 | 1251.91 ± 0.57 | 1240.95 ± 0.55 | 9.599 ± 0.77 | 6.368 ± 0.62 | 4.518 ± 0.54
x2 = 0.7966 | 1226.82 ± 0.39 | 1216.82 ± 0.38 | 1206.64 ± 0.38 | 5.928 ± 0.6 | 4.027 ± 0.52 | 2.917 ± 0.47
x2 = 0.8962 | 1162.06 ± 0.25 | 1152.98 ± 0.24 | 1143.43 ± 0.24 | 2.925 ± 0.47 | 2.069 ± 0.44 | 1.548 ± 0.42
x2 = 0.9485 | 1100.41 ± 0.18 | 1092.64 ± 0.17 | 1084.03 ± 0.18 | 1.745 ± 0.43 | 1.261 ± 0.41 | 0.99 ± 0.41

[4]
Conditions | refractive index
x2 = 0 | 1.48296 ± 0.0012
x2 = 0.0497 | 1.48187 ± 0.0012
x2 = 0.1475 | 1.47986 ± 0.0011
x2 = 0.2128 | 1.47824 ± 0.001
x2 = 0.3086 | 1.47536 ± 0.00097
x2 = 0.3869 | 1.47252 ± 0.00092
x2 = 0.4947 | 1.46739 ± 0.00085
x2 = 0.5959 | 1.46071 ± 0.00079
x2 = 0.6947 | 1.45105 ± 0.00075
x2 = 0.7966 | 1.43485 ± 0.00071
x2 = 0.8962 | 1.40572 ± 0.00069
x2 = 0.9485 | 1.37848 ± 0.00068

CCO [ethanol]
[1]
Conditions | mass density [kg/m3] | viscosity [mPa·s]
298.15 K | 785.46 ± 0.24 | 1.082 ± 0.4
313.15 K | 772 ± 0.25 | 0.827 ± 0.4
328.15 K | 758.55 ± 0.26 | 0.641

Conditions | refractive index
[2] | 1.36023 ± 0.00068

CCO [ethanol] + COS(=O)(=O)[O-].Cn1cc[n+](C)c1
[3], x1 = 1
Conditions | mass density [kg/m3] | viscosity [mPa·s]
298.15 K | 785.46 ± 0.24 | 1.082 ± 0.4
313.15 K | 772 ± 0.25 | 0.827 ± 0.4
328.15 K | 758.55 ± 0.26 | 0.641

Conditions | refractive index
[4], x1 = 1 | 1.36023 ± 0.00068
